Measurements reported in publication PMC8233418, “Structure and transport mechanism of P5B-ATPases” (Nature Communications, 2021).

How the values were obtained:
[1] = target: T1, Ypk9 (Thermochaetoides thermophila, UniProt G0S7G9); assay: ATPase activity, malachite green phosphate release; assay type: biochemical; conditions: 5 mM MgCl2, pH 7.0, 37 °C
T1 construct: gene CTHT_0028100; full length, introns removed; N- or C-terminal TEV-G4S-GFP-His10 fusion, made in S. cerevisiae PAP1500; purified in DDM/CHS (ATPase assay) or reconstituted in nanodiscs (cryo-EM)
T1 sequence (G0S7G9 entry or part of it): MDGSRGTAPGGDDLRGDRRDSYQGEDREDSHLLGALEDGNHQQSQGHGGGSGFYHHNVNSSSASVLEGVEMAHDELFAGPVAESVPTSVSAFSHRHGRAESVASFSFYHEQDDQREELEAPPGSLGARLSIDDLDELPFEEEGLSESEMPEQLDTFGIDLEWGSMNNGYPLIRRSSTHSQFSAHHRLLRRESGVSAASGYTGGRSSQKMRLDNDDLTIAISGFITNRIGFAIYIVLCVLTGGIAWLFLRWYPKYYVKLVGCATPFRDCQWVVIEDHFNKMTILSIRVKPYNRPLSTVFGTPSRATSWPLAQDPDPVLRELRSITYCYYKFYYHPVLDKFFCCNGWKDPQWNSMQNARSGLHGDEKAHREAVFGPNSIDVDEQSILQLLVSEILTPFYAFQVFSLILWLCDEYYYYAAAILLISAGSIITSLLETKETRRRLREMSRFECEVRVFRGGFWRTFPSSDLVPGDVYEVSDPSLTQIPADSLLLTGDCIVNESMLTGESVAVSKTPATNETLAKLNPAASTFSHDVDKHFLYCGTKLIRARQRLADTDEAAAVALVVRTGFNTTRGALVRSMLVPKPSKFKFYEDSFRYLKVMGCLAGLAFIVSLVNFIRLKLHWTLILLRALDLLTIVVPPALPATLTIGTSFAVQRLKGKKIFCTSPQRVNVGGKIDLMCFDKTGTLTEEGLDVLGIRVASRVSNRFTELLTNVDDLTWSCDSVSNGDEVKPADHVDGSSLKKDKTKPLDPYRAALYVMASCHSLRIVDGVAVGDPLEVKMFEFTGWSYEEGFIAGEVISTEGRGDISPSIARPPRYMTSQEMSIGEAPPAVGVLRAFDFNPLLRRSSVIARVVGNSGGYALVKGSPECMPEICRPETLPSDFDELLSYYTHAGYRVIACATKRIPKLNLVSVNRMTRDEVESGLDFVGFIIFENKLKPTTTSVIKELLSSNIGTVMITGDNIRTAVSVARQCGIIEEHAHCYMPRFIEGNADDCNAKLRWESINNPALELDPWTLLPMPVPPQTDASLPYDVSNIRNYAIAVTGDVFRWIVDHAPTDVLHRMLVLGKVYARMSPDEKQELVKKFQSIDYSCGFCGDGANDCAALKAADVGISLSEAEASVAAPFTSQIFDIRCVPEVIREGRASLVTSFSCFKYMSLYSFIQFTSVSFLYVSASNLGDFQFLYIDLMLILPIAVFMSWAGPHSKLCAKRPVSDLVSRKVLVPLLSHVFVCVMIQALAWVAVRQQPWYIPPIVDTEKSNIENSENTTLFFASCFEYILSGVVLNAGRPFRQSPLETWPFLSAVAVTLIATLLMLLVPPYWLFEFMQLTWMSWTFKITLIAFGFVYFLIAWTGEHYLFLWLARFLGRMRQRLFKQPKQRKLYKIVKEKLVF

[2] = target: T1, Ypk9; assay: cryo-EM structure (E2.Pi-SPM […] Å; E2.Pi-AlF/SPM […] Å; E2P* […] Å); assay type: binding; conditions: 1 mM SPM with 1 mM MgCl2, AlF or BeF3−; nanodiscs; luminal cleft between TM2, 4 and 6
[3] = target: T1, Ypk9; assay: ATPase activity, malachite green phosphate release; assay type: biochemical; conditions: 6 mM SPM, 1 mM ATP, 5 mM MgCl2, 100 mM KCl, pH 7.0, 37 °C, DDM/CHS

[F][Be-]([F])[F] [BeF3−]
inhibition at 1 mM ([1]; 1 mM BeF3−, 1 mM ATP, phosphate analogue): inhibited by the inhibitors BeF3^− and NaVO4^−

[O]=[V]([OH])([OH])[OH] [NaVO4−]
inhibition at 1 mM ([1]; 1 mM NaVO4, 1 mM ATP): inhibited by the inhibitors BeF3^− and NaVO4^−

NCCCNCCCCNCCCN [spermine]
cryo-EM structure (E2.Pi-SPM 3.5 Å; E2.Pi-AlF/SPM 3.4 Å; E2P* 3.7 Å) [2]: The cleft harbors an additional, elongated density compatible with the presence of SPM
ATPase stimulation [3]: ATPase activity of purified Ypk9 is stimulated by the polyamine spermine (SPM)
